Patent publication US20240415914A1, “Water Dispersible Cannabinoid Compositions” (priority 2021, published 2024)
Like-named read-outs stand apart in the source and are kept apart here.

Legend:
[1] = Stability of cannabinoid and Vitamin E components of Beverage 2 (AB Red) stored at 8° C. and 21-25° C., LCMSMS over 570 days
Protocol: The LCMSMS was calibrated for 0-50 ng/ml cannabinoids with the same resin material used in the preparation of the concentrates. At each time period, 100 μml of beverage was diluted with 10 ml of methanol and injected into the LCMSMS for analysis.

[2] = format: physicochemical; details: stored at room temperature (21-25° C.)
Protocol: At each time period, 0.05 g of powder was dissolved in 10 ml-15 of ethanol, diluted to fall within the analytical range, and injected into the LCMSMS for analysis.

Structure (SMILES): CCCCCc1cc(O)c(C/C=C(\C)CCC=C(C)C)c(O)c1 [CBG, cannabigerol]
- Stability of Cannabinoids in AB Red ([1]; 8° C., 0 days): 4.75 µg/mL
- Stability of Cannabinoids in AB Red ([1]; 8° C., 1 days): 4.62 µg/mL
- Stability of Cannabinoids in AB Red ([1]; 8° C., 2 days): 4.79 µg/mL
- Stability of Cannabinoids in AB Red ([1]; 8° C., 3 days): 4.70 µg/mL
- Stability of Cannabinoids in AB Red ([1]; 8° C., 5 days): 4.75 µg/mL
- Stability of Cannabinoids in AB Red ([1]; 8° C., 8 days): 4.76 µg/mL
- Stability of Cannabinoids in AB Red ([1]; 8° C., 9 days): 4.72 µg/mL
- Stability of Cannabinoids in AB Red ([1]; 8° C., 10 days): 4.68 µg/mL
- Stability of Cannabinoids in AB Red ([1]; 8° C., 11 days): 4.77 µg/mL
- Stability of Cannabinoids in AB Red ([1]; 8° C., 12 days): 4.64 µg/mL
- Stability of Cannabinoids in AB Red ([1]; 8° C., 15 days): 4.68 µg/mL
- Stability of Cannabinoids in AB Red ([1]; 8° C., 16 days): 4.65 µg/mL
- Stability of Cannabinoids in AB Red ([1]; 8° C., 17 days): 4.77 µg/mL
- Stability of Cannabinoids in AB Red ([1]; 8° C., 18 days): 4.67 µg/mL
- Stability of Cannabinoids in AB Red ([1]; 8° C., 19 days): 4.71 µg/mL
- Stability of Cannabinoids in AB Red ([1]; 8° C., 22 days): 4.70 µg/mL
- Stability of Cannabinoids in AB Red ([1]; 8° C., 23 days): 4.66 µg/mL
- Stability of Cannabinoids in AB Red ([1]; 8° C., 24 days): 4.65 µg/mL
- Stability of Cannabinoids in AB Red ([1]; 8° C., 25 days): 4.73 µg/mL
- Stability of Cannabinoids in AB Red ([1]; 8° C., 26 days): 4.68 µg/mL
- Stability of Cannabinoids in AB Red ([1]; 8° C., 29 days): 4.80 µg/mL
- Stability of Cannabinoids in AB Red ([1]; 8° C., 30 days): 4.72 µg/mL
- Stability of Cannabinoids in AB Red ([1]; 8° C., 60 days): 4.70 µg/mL
- Stability of Cannabinoids in AB Red ([1]; 8° C., 90 days): 4.73 µg/mL
- Stability of Cannabinoids in AB Red ([1]; 8° C., 120 days): 4.68 µg/mL
- Stability of Cannabinoids in AB Red ([1]; 8° C., 150 days): 4.67 µg/mL
- Stability of Cannabinoids in AB Red ([1]; 8° C., 180 days): 4.65 µg/mL
- Stability of Cannabinoids in AB Red ([1]; 8° C., 210 days): 4.60 µg/mL
- Stability of Cannabinoids in AB Red ([1]; 8° C., 240 days): 4.68 µg/mL
- Stability of Cannabinoids in AB Red ([1]; 8° C., 270 days): 4.66 µg/mL
- Stability of Cannabinoids in AB Red ([1]; 8° C., 300 days): 4.70 µg/mL
- Stability of Cannabinoids in AB Red ([1]; 8° C., 330 days): 4.60 µg/mL
- Stability of Cannabinoids in AB Red ([1]; 8° C., 390 days): 4.55 µg/mL
- Stability of Cannabinoids in AB Red ([1]; 8° C., 420 days): 4.58 µg/mL
- Stability of Cannabinoids in AB Red ([1]; 8° C., 450 days): 4.54 µg/mL
- Stability of Cannabinoids in AB Red ([1]; 8° C., 480 days): 4.51 µg/mL
- Stability of Cannabinoids in AB Red ([1]; 8° C., 510 days): 4.40 µg/mL
- Stability of Cannabinoids in AB Red ([1]; 8° C., 540 days): 4.42 µg/mL
- Stability of Cannabinoids in AB Red ([1]; 8° C., 570 days): 4.37 µg/mL
- Stability of Cannabinoids in AB Red ([1]; 21-25° C., 0 days): 4.75 µg/mL
- Stability of Cannabinoids in AB Red ([1]; 21-25° C., 1 days): 4.57 µg/mL
- Stability of Cannabinoids in AB Red ([1]; 21-25° C., 2 days): 4.61 µg/mL
- Stability of Cannabinoids in AB Red ([1]; 21-25° C., 3 days): 4.71 µg/mL
- Stability of Cannabinoids in AB Red ([1]; 21-25° C., 5 days): 4.66 µg/mL
- Stability of Cannabinoids in AB Red ([1]; 21-25° C., 8 days): 4.66 µg/mL
- Stability of Cannabinoids in AB Red ([1]; 21-25° C., 9 days): 4.74 µg/mL
- Stability of Cannabinoids in AB Red ([1]; 21-25° C., 10 days): 4.59 µg/mL
- Stability of Cannabinoids in AB Red ([1]; 21-25° C., 11 days): 4.72 µg/mL
- Stability of Cannabinoids in AB Red ([1]; 21-25° C., 12 days): 4.62 µg/mL
- Stability of Cannabinoids in AB Red ([1]; 21-25° C., 15 days): 4.80 µg/mL
- Stability of Cannabinoids in AB Red ([1]; 21-25° C., 16 days): 4.75 µg/mL
- Stability of Cannabinoids in AB Red ([1]; 21-25° C., 17 days): 4.63 µg/mL
- Stability of Cannabinoids in AB Red ([1]; 21-25° C., 18 days): 4.70 µg/mL
- Stability of Cannabinoids in AB Red ([1]; 21-25° C., 19 days): 4.66 µg/mL
- Stability of Cannabinoids in AB Red ([1]; 21-25° C., 22 days): 4.71 µg/mL
- Stability of Cannabinoids in AB Red ([1]; 21-25° C., 23 days): 4.67 µg/mL
- Stability of Cannabinoids in AB Red ([1]; 21-25° C., 24 days): 4.78 µg/mL
- Stability of Cannabinoids in AB Red ([1]; 21-25° C., 25 days): 4.56 µg/mL
- Stability of Cannabinoids in AB Red ([1]; 21-25° C., 26 days): 4.77 µg/mL
- Stability of Cannabinoids in AB Red ([1]; 21-25° C., 29 days): 4.78 µg/mL
- Stability of Cannabinoids in AB Red ([1]; 21-25° C., 30 days): 4.73 µg/mL
- Stability of Cannabinoids in AB Red ([1]; 21-25° C., 60 days): 4.61 µg/mL
- Stability of Cannabinoids in AB Red ([1]; 21-25° C., 90 days): 4.55 µg/mL
- Stability of Cannabinoids in AB Red ([1]; 21-25° C., 120 days): 4.61 µg/mL
- Stability of Cannabinoids in AB Red ([1]; 21-25° C., 150 days): 4.65 µg/mL
- Stability of Cannabinoids in AB Red ([1]; 21-25° C., 180 days): 4.53 µg/mL
- Stability of Cannabinoids in AB Red ([1]; 21-25° C., 210 days): 4.63 µg/mL
- Stability of Cannabinoids in AB Red ([1]; 21-25° C., 240 days): 4.56 µg/mL
- Stability of Cannabinoids in AB Red ([1]; 21-25° C., 270 days): 4.68 µg/mL
- Stability of Cannabinoids in AB Red ([1]; 21-25° C., 300 days): 4.47 µg/mL
- Stability of Cannabinoids in AB Red ([1]; 21-25° C., 330 days): 4.57 µg/mL
- Stability of Cannabinoids in AB Red ([1]; 21-25° C., 390 days): 4.57 µg/mL
- Stability of Cannabinoids in AB Red ([1]; 21-25° C., 420 days): 4.51 µg/mL
- Stability of Cannabinoids in AB Red ([1]; 21-25° C., 450 days): 4.63 µg/mL
- Stability of Cannabinoids in AB Red ([1]; 21-25° C., 480 days): 4.44 µg/mL
- Stability of Cannabinoids in AB Red ([1]; 21-25° C., 510 days): 4.37 µg/mL
- Stability of Cannabinoids in AB Red ([1]; 21-25° C., 540 days): 4.49 µg/mL
- Stability of Cannabinoids in AB Red ([1]; 21-25° C., 570 days): 4.36 µg/mL
- Stability in Powder Concentrate (content by LCMSMS) ([2]; day 0): 1.1 mg/g powder
- Stability in Powder Concentrate (content by LCMSMS) ([2]; day 1): 1.07 mg/g powder
- Stability in Powder Concentrate (content by LCMSMS) ([2]; day 2): 1.08 mg/g powder
- Stability in Powder Concentrate (content by LCMSMS) ([2]; day 3): 1.09 mg/g powder
- Stability in Powder Concentrate (content by LCMSMS) ([2]; day 5): 1.11 mg/g powder
- Stability in Powder Concentrate (content by LCMSMS) ([2]; day 8): 1.07 mg/g powder
- Stability in Powder Concentrate (content by LCMSMS) ([2]; day 9): 1.09 mg/g powder
- Stability in Powder Concentrate (content by LCMSMS) ([2]; day 10): 1.08 mg/g powder
- Stability in Powder Concentrate (content by LCMSMS) ([2]; day 11): 1.14 mg/g powder
- Stability in Powder Concentrate (content by LCMSMS) ([2]; day 12): 1.10 mg/g powder
- Stability in Powder Concentrate (content by LCMSMS) ([2]; day 15): 1.08 mg/g powder
- Stability in Powder Concentrate (content by LCMSMS) ([2]; day 16): 1.06 mg/g powder
- Stability in Powder Concentrate (content by LCMSMS) ([2]; day 17): 1.06 mg/g powder
- Stability in Powder Concentrate (content by LCMSMS) ([2]; day 18): 1.13 mg/g powder
- Stability in Powder Concentrate (content by LCMSMS) ([2]; day 19): 1.14 mg/g powder
- Stability in Powder Concentrate (content by LCMSMS) ([2]; day 22): 1.12 mg/g powder
- Stability in Powder Concentrate (content by LCMSMS) ([2]; day 23): 1.13 mg/g powder
- Stability in Powder Concentrate (content by LCMSMS) ([2]; day 24): 1.09 mg/g powder
- Stability in Powder Concentrate (content by LCMSMS) ([2]; day 25): 1.13 mg/g powder
- Stability in Powder Concentrate (content by LCMSMS) ([2]; day 26): 1.14 mg/g powder
- Stability in Powder Concentrate (content by LCMSMS) ([2]; day 29): 1.10 mg/g powder
- Stability in Powder Concentrate (content by LCMSMS) ([2]; day 30): 1.07 mg/g powder
- Stability in Powder Concentrate (content by LCMSMS) ([2]; day 60): 1.1 mg/g powder
- Stability in Powder Concentrate (content by LCMSMS) ([2]; day 90): 1.13 mg/g powder
- Stability in Powder Concentrate (content by LCMSMS) ([2]; day 120): 1.09 mg/g powder
- Stability in Powder Concentrate (content by LCMSMS) ([2]; day 150): 1.11 mg/g powder
- Stability in Powder Concentrate (content by LCMSMS) ([2]; day 180): 1.07 mg/g powder
- Stability in Powder Concentrate (content by LCMSMS) ([2]; day 210): 1.06 mg/g powder
- Stability in Powder Concentrate (content by LCMSMS) ([2]; day 240): 1.12 mg/g powder
- Stability in Powder Concentrate (content by LCMSMS) ([2]; day 270): 1.15 mg/g powder
- Stability in Powder Concentrate (content by LCMSMS) ([2]; day 300): 1.09 mg/g powder
- Stability in Powder Concentrate (content by LCMSMS) ([2]; day 330): 1.10 mg/g powder
- Stability in Powder Concentrate (content by LCMSMS) ([2]; day 360): 1.09 mg/g powder
- Stability in Powder Concentrate (content by LCMSMS) ([2]; day 390): 1.14 mg/g powder
- Stability in Powder Concentrate (content by LCMSMS) ([2]; day 420): 1.11 mg/g powder
- Stability in Powder Concentrate (content by LCMSMS) ([2]; day 450): 1.06 mg/g powder
- Stability in Powder Concentrate (content by LCMSMS) ([2]; day 480): 1.12 mg/g powder
- Stability in Powder Concentrate (content by LCMSMS) ([2]; day 510): 1.07 mg/g powder
- Stability in Powder Concentrate (content by LCMSMS) ([2]; day 540): 1.07 mg/g powder
- Stability in Powder Concentrate (content by LCMSMS) ([2]; day 570): 1.06 mg/g powder
